From patent EP4567032A1, “KIF18A INHIBITOR COMPOUND, AND PHARMACEUTICAL COMPOSITION AND PREPARATION METHOD THEREFOR AND USE THEREOF” (Changchun Genescience Pharmaceutical Co., Ltd., priority 2022, dated 2024)

Legend:
KIF18A = target: T1, KIF18A (Homo sapiens, UniProt Q8NI77); assay: KIF18A enzyme activity test (ADP Glo); type: biochemical; details: ADP Glo luminescence, 60 min reaction at room temperature, 1% DMSO
T1 sequence (Q8NI77 1-898): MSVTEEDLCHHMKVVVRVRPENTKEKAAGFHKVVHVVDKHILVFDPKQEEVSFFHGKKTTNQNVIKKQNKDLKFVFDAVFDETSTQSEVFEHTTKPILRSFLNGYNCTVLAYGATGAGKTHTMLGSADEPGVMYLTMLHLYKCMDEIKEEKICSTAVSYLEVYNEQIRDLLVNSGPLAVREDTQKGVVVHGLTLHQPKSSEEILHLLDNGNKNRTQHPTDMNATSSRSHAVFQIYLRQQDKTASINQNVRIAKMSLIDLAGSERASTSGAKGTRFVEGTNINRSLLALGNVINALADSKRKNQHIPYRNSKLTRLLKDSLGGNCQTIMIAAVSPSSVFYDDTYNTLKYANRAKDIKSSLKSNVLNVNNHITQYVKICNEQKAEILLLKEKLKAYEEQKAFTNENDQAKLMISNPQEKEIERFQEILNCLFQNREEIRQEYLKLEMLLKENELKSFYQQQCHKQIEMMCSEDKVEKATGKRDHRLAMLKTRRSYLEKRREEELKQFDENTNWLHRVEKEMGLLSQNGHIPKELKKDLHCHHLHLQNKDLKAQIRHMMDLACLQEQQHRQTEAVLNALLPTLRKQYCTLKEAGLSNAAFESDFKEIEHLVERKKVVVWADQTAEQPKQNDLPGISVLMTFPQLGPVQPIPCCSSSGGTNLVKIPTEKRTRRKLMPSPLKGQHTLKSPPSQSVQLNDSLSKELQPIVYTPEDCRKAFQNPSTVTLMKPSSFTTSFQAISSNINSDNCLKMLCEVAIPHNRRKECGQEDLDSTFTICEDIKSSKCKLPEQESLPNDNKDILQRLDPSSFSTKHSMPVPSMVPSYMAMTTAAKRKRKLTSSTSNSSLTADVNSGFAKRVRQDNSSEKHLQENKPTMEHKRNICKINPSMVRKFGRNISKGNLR
Protocol: Test name: KIF18A enzyme activity test
• 1) Compound dilution and treatment: The final concentrations of AM-5308: 10000, 3333.3, 1111.1, 370.3, 123.4, 41.1, 13.7, 4.5, 1.5, 0.5 nM, the final testing concentrations of the testing compound: 10000, 3333.3, 1111.1, 370.3, 123.4, 41.1, 13.7, 4.5, 1.5 and 0.5 nM. • 2) To each well of the reaction plate, 100 nL of the diluted compound stock solution was transferred using Echo 655. The final concentration of DMSO was 1%. • 3) The reaction plate was sealed with a sealing membrane and centrifuged at 1000g for 1 min. • 4) A 2× enzyme solution was prepared with 1× reaction buffer. • 5) To each well of the reaction plate, 5 µL of 2×enzyme solution was added. The plate was sealed with a sealing membrane, centrifuged at 1000g for 1 min and left at room temperature for 15 min. • 6) A 2× ATP solution was prepared with 1× reaction buffer. • 7) To the reaction plate, 5 µL of 2×ATP solution was added, the plate was centrifuged at 1000g for 1 min, and the reaction was started. • 8) The system was allowed to react at room temperature for 60 min. • 9) 10 µL of ADP Glo reagent was added. The system was centrifuged at 1000 g for 1 min and incubated at room temperature for 60 min. • 10) 20 µL of kinase detection reagent was added. The system was centrifuged at 1000 g for 1 min, and incubated at room temperature for 60 min. • 11) The system was centrifuged at 1000 g for 1 min. • 12) The luminescence signals were read on Envision 2104.
The inhibition percentage is calculated as follows: %inhibition = 100−(Signalcmpd−SignalAve_PC)/(SignalAve_VC−SignalAve_PC) × 100 [formula] • Signalcmpd: Average value of the test compound on the reaction plate. • SignalAve_PC: Average value of the positive control (AM-5308) on the reaction plate. • SignalAve_VC: Average value of the negative control (DMSO) on the reaction plate.
IC50 was calculated and the dose-effect curve was fit: The IC50 of the compound was obtained by non-linear fitting formula with GraphPad 8.0.
Z factor > 0.5; S/B > 2. Table 2 Enzyme activity data for the compound of the present application

OVCAR-3 cells = assay: imaging-based nuclear count analysis (NCA) in OVCAR-3 cells; type: cell-based; details: Homo sapiens, 96 h, cultured 4 days, Hoechst 33342 nuclear count, 0.1% DMSO
Protocol: Test name: imaging-based nuclear count analysis (NCA) in OVCAR-3 cells
• a) When the cell confluence reached 80%-90%, the cells were treated. • b) The cells were resuspended in a medium and then counted and diluted at a desired density. • c) A cell suspension containing appropriate cells was added to the 384-well plate at 30 µL/well: 600 cells/well.
• a) 30 µL of 8% fixative (final concentration 4%) was added and the plate was incubated at room temperature for 30 min. • b) The plate was centrifuged at 1000RPM for 30s. • c) The plate was washed twice with 60 µl/well PBS. • d) After immobilization, the cells were permeabilized and stained in 60 µL of a wash buffer containing 2 µg/mL Hoechst 33342 DNA dye (1% BSA, 0.2% Triton X-100, 1X PBS). • e) The plate was sealed and incubated at room temperature in the dark for 1 h. • f) It was washed with PBS 3 times. • g) 50µLPBS/well was added and the plate was scanned using HCS. • h) Data acquisition and detection
High-reading control wells: cells + 30 nL DMSO; low-reading control wells: 10 µM AM-5308.
IC50 (nM) was calculated using GraphPad Prism 8 software and the effect-dose curves of the compound were plotted. Table 1 Bioactivity data of the compound of the present application

| IC50 (KIF18A) [nM] | IC50 (OVCAR-3 cells) [nM] | SMILES |
| --- | --- | --- |
| 13.7 | 72.2 | O=C(Nc1cccc2c1nc1n2CCC1)c1ccc(NS(=O)(=O)CCO)cc1N1CCC2(CC1)CC2 [Compound 36, N-(2,3-dihydro-1H-benzo[d]pyrrolo[1,2-a]imidazol-5-yl)-4-(2-hydroxyethanesulfonylamino)-2-(6-azaspiro[2.5]octan-6-yl)benzamide] |
| 15.1 | 36.1 | O=C(Nc1cccc2c1nc1n2CCC1(F)F)c1ccc(NS(=O)(=O)CCO)cc1N1CCC2(CC1)CC2 [Compound 94, N-(3,3-difluoro-2,3-dihydro-1H-benzo[d]pyrrolo[1,2-a]imidazol-5-yl)-4-(2-hydroxyethanesulfonylamino)-2-(6-azaspiro[2.5]octan-6-yl)benzamide] |
| 8.97 | 89.7 | O=C(Nc1cccc2c1nc1n2C2CCC1C2)c1ccc(NS(=O)(=O)CCO)cc1N1CCC2(CC1)CC2 (stereo not drawn) [Compound 96, 4-(2-hydroxyethanesulfonylamino)-2-(6-azaspiro[2.5]octan-6-yl)-N-(1,2,3,4-tetrahydro-1,4-methylenebenzo[4,5]imidazo[1,2-a]pyridin-6-yl)benzamide] |
| 5.35 | 60.9 | O=C(Nc1cccc2c1nc1n2[C@H]2CC[C@@H]1C2)c1ccc(NS(=O)(=O)CCO)cc1N1CCC2(CC1)CC2 [Compound 96a, 4-(2-hydroxyethanesulfonylamino) -2-(6-azaspiro[2.5]octan-6-yl)-N-((1S,4R)-1,2,3,4-tetrahydro-1,4-methylenebenzo[4,5]imidazo [1,2-a]pyridin-6-yl)benzamide] |
| 9.09 | 58.8 | O=C(Nc1cccc2c1nc1n2CCCCC1)c1ccc(NS(=O)(=O)CCO)cc1N1CCC2(CC1)CC2 [Compound 97, 4-(2-hydroxyethanesulfonylamino)-2-(6-azaspiro[2.5]octan-6-yl)-N-(7,8,9,10-tetrahydro-6H-benzo[4,5]imidazo[1,2-a]azepin-4-yl)benzamide] |
| 26.5 | 170 | CC1CCCn2c1nc1c(NC(=O)c3ccc(NS(=O)(=O)CCO)cc3N3CCC4(CC3)CC4)cccc12 (stereo not drawn) [Compound 98, 4-(2-hydroxyethanesulfonylamino)-N-(4-methyl-1,2,3,4-tetrahydrobenzo[4,5]imidazo[1,2-a]pyridin-6-yl)-2-(6-azaspiro[2.5]octan-6-yl)benzamide] |
